Experimental data: article PMC3218208 (Nature chemical biology, 2011)

Biological target: Enzyme I (EI, PtsI) (Escherichia coli, UniProt P08839)
Experiment: […] pyruvate/PEP isotope exchange assay with LC-MS/MS on purified enzyme
Format: biochemical

Ki: 1300 ± 100 µM
Structure (SMILES): O=C(O)CCC(=O)C(=O)O [αKG, α-ketoglutarate]
